Read-outs that look alike come from different tables or passages of the source.
What was measured:
[1] = system: T20-resistant virus V38E N42S; format: cell-based, HIV-1; details: means ± SD
[2] = system: T20-resistant virus V38A N42T; format: cell-based, HIV-1; details: means ± SD
SM145/GS 016 (C, R5) = assay: Inactivation of cell-free HIV-1 clinical virus; format: cell-based; details: Human immunodeficiency virus 1, inactivation of cell-free virions, means ± SD
Cytotoxicity (CCK-8) = format: cell-based; details: human
Procedure: Cell viability was detected following the instructions in the protocol provided in the cell counting kit-8 (CCK-8; Dojindo Molecular Technologies, Gaithersburg, MD, USA) as previously described ([Yang et al., 2018]). Briefly, MT-2 cells and CEMx174 517 5.25 M7 cells (3 × 10^4/well) were incubated with compounds at different concentrations at 37°C for 48 h. Then, the supernatant was discarded, and CCK8 diluted 10 times with fresh medium was added (200 μL/well). After 2–6 h of incubation at 37°C, the absorbance at 450 nm was measured using a microplate reader (Tecan, Männedorf, Switzerland).

[3] = system: T2635-resistant virus N113E; format: cell-based, HIV-1; details: means ± SD
HIV-1 IIIB = assay: Inactivation of cell-free HIV-1 virions (PEG-6000 precipitation, p24 ELISA); format: cell-based; details: Human immunodeficiency virus 1, IIIB; cell-free virions, 1 h at 4°C, PEG-6000 precipitation; read-out: EC50, inactivation of HIV-1 IIIB
D36G (NL4-3 WT) = format: cell-based, HIV-1; details: inactivation of cell-free virions, T20-resistant panel D36G (NL4-3 WT); means ± SD
[4] = system: T2635-resistant virus K90E; format: cell-based, HIV-1; details: inactivation of cell-free virions, means ± SD
92/UG/024 (D, X4) = assay: Inhibition of HIV-1 clinical virus infection; format: cell-based; details: Human immunodeficiency virus 1; HIV-1 clinical virus 92/UG/024 (D, X4); means ± SD
[5] = molecular target: T1, 6HB formation between N36 and C34 (Human immunodeficiency virus type 1 group M subtype B, UniProt P04578); assay: N-PAGE inhibition of six-helix bundle formation; format: biochemical, HIV-1; details: peptides 40 μM final
T1 construct: purchased NIH AIDS Reagent Program
Procedure: The sample was mixed with Tris-glycine native sample buffer and then loaded onto the 18% Tris-glycine gel. Gel electrophoresis was carried out with 125 V constant voltage at room temperature for 3 h.

[6] = system: T20-resistant virus V38A N42D; format: cell-based, HIV-1; details: means ± SD
[7] = system: T2635-resistant virus H3C; assay: microbe, parasite or virus in culture; format: cell-based, HIV-1; details: Human immunodeficiency virus 1
92/UG/001 (D, R5 and X4) = assay: Inhibition of HIV-1 clinical virus infection; format: cell-based; details: Human immunodeficiency virus 1; HIV-1 clinical virus 92/UG/001 (D, R5 and X4); means ± SD
96USSN20 (A, R5 and X4) = assay: Inhibition of HIV-1 clinical virus infection; format: cell-based; details: Human immunodeficiency virus 1; HIV-1 clinical virus 96USSN20 (A, R5 and X4); means ± SD
[8] = system: T20-resistant virus V38E N42S; format: cell-based, HIV-1; details: inactivation of cell-free virions, means ± SD
[9] = system: T2635-resistant virus Q79E N126K; format: cell-based, HIV-1; details: inactivation of cell-free virions, means ± SD
92/TH/009 (A/E, R5) = assay: Inactivation of cell-free HIV-1 clinical virus; format: cell-based; details: Human immunodeficiency virus 1, inactivation of cell-free virions, means ± SD
HIV-1 Bal = assay: Inactivation of cell-free HIV-1 virions (PEG-6000 precipitation, p24 ELISA); format: cell-based; details: Human immunodeficiency virus 1, BAL; cell-free virions, 1 h at 4°C, PEG-6000 precipitation; read-out: EC50, inactivation of HIV-1 Bal

T1 sequence (P04578 546-581): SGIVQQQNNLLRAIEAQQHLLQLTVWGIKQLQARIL

CC1(C)CC(NC(=O)C(=O)Nc2ccc(Cl)c(F)c2)CC(C)(C)N1C(=O)COc1ccc(CCN2C(=O)/C(=C/c3ccc(-c4ccc(Cl)c(C(=O)O)c4)o3)SC2=S)cc1 [FD028, (Z)-2-Chloro-5-(5-((3-(4-(2-(4-(2-((4-Chloro-3-Fluorophenyl)amino)-2-oxoacetamido)-2,2,6,6-Tetramethylpiperidin-1-yl)-2-oxoethoxy)phenethyl)-4-oxo-2-Thioxothiazolidin-5-ylidene)methyl)furan-2-yl)benzoic Acid]
IC50 [1]: 0.24 ± 0.02 µM
IC50 [2]: 0.95 ± 0.06 µM
EC50 (SM145/GS 016 (C, R5)): 0.96 ± 0.09 µM
CC50 at 48 h (Cytotoxicity (CCK-8); CEMx174 5.25 M7 cells, read-out: CC50, CEMx174 5.25 M7 cell): 18.2 µM
CC50 at 48 h (Cytotoxicity (CCK-8); MT-2 cells, read-out: CC50, MT-2 cell): 29.5 µM
IC50 [3]: 0.57 ± 0.13 µM
EC50 (HIV-1 IIIB): 0.71 µM
EC50 (D36G (NL4-3 WT)): 0.41 ± 0.02 µM
EC50 [4]: 0.55 ± 0.23 µM
IC50 (92/UG/024 (D, X4)): 1.04 ± 0.16 µM
IC50 [5]: 100 to 200 µM
IC50 [6]: 0.48 ± 0.11 µM
EC50 [7]: 1.2 ± 0.14 µM
IC50 (92/UG/001 (D, R5 and X4)): 0.45 ± 0.12 µM
IC50 (96USSN20 (A, R5 and X4)): 0.2 ± 0.01 µM
EC50 [8]: 0.49 ± 0.03 µM
EC50 [9]: 0.12 ± 0.02 µM
EC50 (92/TH/009 (A/E, R5)): 0.26 ± 0.06 µM
EC50 (HIV-1 Bal): 0.66 µM

From publication PMC7868322, “Rational Design of A Novel Small-Molecule HIV-1 Inactivator Targeting Both gp120 and gp41 of HIV-1” (Frontiers in Pharmacology, 2021)
